From patent US11472807B2, “Purine derivatives for use as medicament and for use in treating neurodegenerative or neuro-inflammatory disorders” (COMMISSARIAT À L'ENERGIE ATOMIQUE ET AUX ENERGIES …, priority 2017, dated 2022)

How the values were obtained:
[1] = system: short-term memory (working memory); test: Y-maze spontaneous alternation test; type: in vivo, C57Bl/6J mice; settings: WT mice, 8 mg/kg subcutaneous, 28 days
Method: FIG. 13. Plots illustrating the effect of Aftin-5 on short-term memory (working memory) in Y maze. C57B1/6J mice were exposed sub-cutaneously to Aftin-5 at 8 mg/kg (A8) or vehicle (DMSO/PEG; Veh) during 28 days through an Alzet pump. 3-4 weeks later, cognitive abilities were assessed by the means of the total number of arm entries (A) and the percentage of alternation (B). Mann-Whitney tests were performed and **p<0.01 indicates significant differences between Aftin-5 and control conditions. Data expressed as means+/−SEM with n=15 mice/condition. The spontaneous alternation test (Y maze) is a test to evaluate the short-term memory (working memory) of the animal. This test is carried out in a Y-maze with arms customized by different forms; squares (A), triangles (B) and lines (C). The mouse is placed in one of the arms for 8 min. In this test, the mouse is free to explore spontaneously the three arms of the Y-maze (FIG. 1). During the session, the number of entries of each arm of the Y-maze is counted. At the end of the session, the number of possibility (number of total entries in the arms) and the number of spontaneous alternation are calculated. An alternation is defined by consecutive entries in the three different arms (A-B-C). A mouse with a normal phenotype will tend to explore the novelty. […]

[2] = system: amyloid precursor protein (APP); test: APP protein expression in neuronal primary cultures (Western blot); type: cell-based; settings: hippocampal neurons, 100 μM, 18 h
Method: FIG. 8. Plots illustrating the effect of Aftin-5 on APP protein expression in neuronal primary cultures. Culture medium of hippocampal neurons was replaced by incubation medium containing Aftin-5 (100 μM) or vehicle (0.1% DMSO). 18 h later, APP protein in lysate was quantified by Western blotting with anti-APP polyclonal antibody (Millipore). The Western blots were quantified by densitometric analysis. Relative APP protein expression was expressed (Aftin-5) as comparison with the control condition (vehicle; Ctrl). Data expressed as means+/−SEM from one experiment with n=5 wells/condition.
Hippocampi and cortex were dissected in HBSS containing 5 mM glucose (dissection medium). […] Cells were counted and seeded at a density of 22,000 per cm^2 for hippocampal neurons and 10^5 per cm^2 for cortical neurons into 24 wells culture plates (Costar) in plating medium (DMEM medium containing 10% heat-inactivated horse serum (Life Technologies)). […]
Cells were lysed in freshly prepared lysis buffer containing in mM: Tris-HCl 50, EDTA 2, EGTA 2, NaCl 100, SDS 0.2%, Triton X-100 1%, proteases inhibitors (Roche Protease Inhibitor Cocktail #04693116001), phosphatases inhibitors (in mM: ammonium molybdate 0.1, β-glycerophosphate 20, NaF 50, Na-pyrophosphate 10, Orthovanadate 1). Protein concentration was measured by the Bradford assay and Laemmli buffer was added to each lysate. […]

[3] = system: non-spatial medium-term memory; test: Novel object recognition (NOR) test; type: in vivo, C57Bl/6J mice; settings: WT mice, 8 mg/kg subcutaneous, 28 days
Method: FIG. 14. Plots illustrating the effect of Aftin-5 on non-spatial medium-term memory. C57B1/6J mice were exposed sub-cutaneously to (A) the vehicle condition (DMSO/PEG) or (B) Aftin-5 at 8 mg/kg, during 28 days through an Alzet pump. 3-4 weeks later, cognitive abilities were assessed through different novel object recognition (NOR) tests, including the recognition of familiar objects (dark gray bars) or novel objects (light gray bars). Two-way ANOVA and Bonferroni post-hoc tests were performed and *p<0.05 indicates significant differences between Aftin-5 and control conditions, **p<0.01. Data expressed as means+/−SEM with n=15 mice/condition.
The NOR test is a test to assess the medium-term non-spatial memory (object). This test takes place in 3 sessions: the Open Field, the Familiarization session and the Test session. The first session allows the habituation of the mouse to the arena. The mouse is placed in the empty arena for 15 min. During this session, the velocity, locomotor activity and anxiety of the mouse are checked. The second session is to familiarize the animal with objects. For this, 24 hours after the Open Field, the mouse is placed in the arena containing two identical objects. The mouse will explore the arena and the two objects placed in the center for 10 min. Finally, after an interval of pre-established time (24 hours), the mouse is placed again in the same arena. […]

CC[C@H](CO)Nc1nc(N(C)c2ccccc2)c2ncn(C(C)C)c2n1 [Aftin-5]
spatial memory in Y-maze [1]: improved spatial memory | level of APP [2]: does not change | improvement of long term object recognition memory in NOR test [3]: does not achieve significance
